# The source made the active and inactive calls. The rule behind the calls is not given here.
# How the values were obtained:
# Pseudomonas aeruginosa [1] = test: Antibacterial activity against Pseudomonas aeruginosa ATCC 27853 assessed as bacterial growth inhibition measured after 24 hrs by two fold serial dilution technique; format: functional
# Acinetobacter baumannii = test: Antibacterial activity against Acinetobacter baumannii assessed as bacterial growth inhibition measured after 24 hrs by two fold serial dilution technique; format: functional
# Enterococcus faecium = test: Antibacterial activity against Enterococcus faecium assessed as bacterial growth inhibition measured after 24 hrs by two fold serial dilution technique; format: functional
# Klebsiella pneumoniae = test: Antibacterial activity against Klebsiella pneumoniae assessed as bacterial growth inhibition measured after 24 hrs by two fold serial dilution technique; format: functional
# Pseudomonas aeruginosa [2] = test: Antibacterial activity against Pseudomonas aeruginosa assessed as bacterial growth inhibition measured after 24 hrs by two fold serial dilution technique; format: functional
# Staphylococcus aureus [3] = test: Antibacterial activity against methicillin resistant Staphylococcus aureus treated over 10 serial passages measured after 24 hrs by resistance development assay; format: functional, organism-based
# Staphylococcus aureus [4] = test: Antibacterial activity against Staphylococcus aureus ATCC 29213 assessed as bacterial growth inhibition measured after 24 hrs by two fold serial dilution technique; format: functional
# Escherichia coli [5] = test: Antibacterial activity against Escherichia coli assessed as bacterial growth inhibition measured after 24 hrs by two fold serial dilution technique; format: functional
# Staphylococcus aureus [6] = test: Antibacterial activity against methicillin-resistant Staphylococcus aureus assessed as bacterial growth inhibition measured after 24 hrs by two fold serial dilution technique; format: functional
# Staphylococcus = test: Binding affinity to Staphylococcus aureus PBP2a measured after 6 hrs by ELISA; conditions: filed as positive allosteric modulator
# Staphylococcus aureus [7] = test: Antibacterial activity against Staphylococcus aureus assessed as bacterial growth inhibition measured after 24 hrs by two fold serial dilution technique; format: functional
# Staphylococcus aureus [8] = test: Antibacterial activity against Staphylococcus aureus ATCC 25923 assessed as bacterial growth inhibition measured after 24 hrs by two fold serial dilution technique; format: functional
# Escherichia coli [9] = test: Antibacterial activity against Escherichia coli ATCC 25922 assessed as bacterial growth inhibition measured after 24 hrs by two fold serial dilution technique; format: functional
# [10] = Hemolytic activity in human RBC assessed as hemolysis incubated for 1 hr; format: toxicity, cell-based, Erythrocyte; conditions: red blood cells
# Staphylococcus aureus [11] = test: Antibacterial activity against methicillin-resistant Staphylococcus aureus assessed as respiratory pathway inactivation by measuring decrease in LDH activity at MIC incubated for 6 hrs by LDH assay; format: functional; parameters: scale not given: the % may be the effect or the level left
# [12] = target: T1, MecA (Staphylococcus aureus) (UniProt Q7DHH4); test: Binding affinity to Staphylococcus aureus PBP2a measured after 6 hrs by ELISA in the presence of Norfloxacin; conditions: filed as positive allosteric modulator
# T1 sequence (whole entry): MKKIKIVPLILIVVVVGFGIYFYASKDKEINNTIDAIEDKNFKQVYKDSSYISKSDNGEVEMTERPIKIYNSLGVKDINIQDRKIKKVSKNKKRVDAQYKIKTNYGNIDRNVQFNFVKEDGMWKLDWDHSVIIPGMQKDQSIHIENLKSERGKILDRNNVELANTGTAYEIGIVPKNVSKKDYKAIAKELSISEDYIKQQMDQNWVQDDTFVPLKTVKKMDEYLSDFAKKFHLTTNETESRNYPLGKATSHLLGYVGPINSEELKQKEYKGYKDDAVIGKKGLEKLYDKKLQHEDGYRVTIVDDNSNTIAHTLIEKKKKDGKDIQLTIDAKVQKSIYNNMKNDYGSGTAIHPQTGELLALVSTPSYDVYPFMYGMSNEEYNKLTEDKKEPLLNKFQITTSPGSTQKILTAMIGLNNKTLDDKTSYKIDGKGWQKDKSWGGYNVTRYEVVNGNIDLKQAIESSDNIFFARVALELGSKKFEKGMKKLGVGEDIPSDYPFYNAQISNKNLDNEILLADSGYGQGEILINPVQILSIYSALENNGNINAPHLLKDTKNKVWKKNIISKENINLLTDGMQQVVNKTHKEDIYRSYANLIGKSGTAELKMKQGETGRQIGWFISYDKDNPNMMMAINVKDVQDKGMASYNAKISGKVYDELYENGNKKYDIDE
# L929 = test: Cytotoxicity against mouse L929 cells assessed as reduction in cell viability at 0.39 to 100 ug/ml incubated for 24 hrs by MTT assay; format: toxicity, cell-based; conditions: l929, 24 h, dose 0.39-100 µg/ml
# Cell membrane [13] = test: Induction of inner membrane permeabilization in methicillin-resistant Staphylococcus aureus at 2 times MIC measured for 1 hr by PI dye-based fluorescence assay; conditions: TDE = time-dependent effect
# Staphylococcus aureus [14] = test: Induction of ROS generation in methicillin-resistant Staphylococcus aureus after 6 hrs by DCFH-DA staining based fluorescence assay; format: functional, organism-based
# Staphylococcus aureus [15] = test: Antibacterial activity against methicillin-resistant Staphylococcus aureus assessed as disrupted cell shapes at 1 time MIC incubated for 8 hrs by SEM analysis; format: functional, organism-based
# Staphylococcus aureus [16] = test: Antibacterial activity against methicillin-resistant Staphylococcus aureus assessed as shriveled cell structures at 1 time MIC incubated for 8 hrs by SEM analysis; format: functional, organism-based
# Cell membrane [17] = test: Induction of membrane depolarization in methicillin-resistant Staphylococcus aureus at MIC measured upto 1 hr by DiSC35 dye-based fluorescence assay; conditions: time hrs <=1, TDE = time-dependent effect
# Staphylococcus aureus [18] = test: Antibacterial activity against methicillin-resistant Staphylococcus aureus assessed as inhibition of bacterial growth at 1 time MIC measured after 2 hrs; format: functional, organism-based
# DNA [19] = test: Binding affinity to DNA (unknown origin) assessed as decrease in maximum absorption peak at 410nm at 3 10^-5 mol/L by UV spectrophotometric analysis; format: functional; conditions: Homo sapiens
# Staphylococcus aureus [20] = test: Antibacterial activity against methicillin-resistant Staphylococcus aureus assessed as respiratory pathway inactivation by measuring decrease in LDH activity measured after 6 hrs by LDH assay; format: functional, organism-based
# Staphylococcus aureus [21] = test: Antibacterial activity against methicillin-resistant Staphylococcus aureus assessed as pitted cell structures at 1 time MIC incubated for 8 hrs by SEM analysis; format: functional, organism-based
# Staphylococcus aureus [22] = test: Antibacterial activity against methicillin resistant Staphylococcus aureus treated over 16 serial passages measured after 24 hrs by resistance development assay; format: functional, organism-based
# Staphylococcus aureus [23] = test: Antibacterial activity against methicillin-resistant Staphylococcus aureus assessed as inhibition of bacterial growth at 0.5 time MIC measured after 2 hrs; format: functional, organism-based
# DNA [24] = test: Binding affinity to DNA (unknown origin) assessed as decrease in fluorescence intensity at 5 10^-5 mol/L by acridine orange staining based fluorescence microscopic analysis; format: functional; conditions: Homo sapiens
# DNA [25] = test: Binding affinity to DNA (unknown origin) assessed as hypochromicity at 0.2 to 0.8 10^-5 mol/L by UV spectrophotometric analysis; format: functional; conditions: Homo sapiens; dose 0.2-0.8 10^-5mol/L
# Homo sapiens = species on record: Homo sapiens; test: Binding affinity to lipase (unknown origin) assessed as decrease in fluorescence intensity measured after 5 mins by fluorescence spectrofluorometric analysis
# Cell membrane [26] = test: Induction of cell membrane disruption in methicillin-resistant Staphylococcus aureus assessed as increase in protein leakage measured after 6 hrs by Bradford assay
# Cell membrane [27] = test: Induction of inner membrane permeabilization in methicillin-resistant Staphylococcus aureus at 1 time MIC measured for 1 hr by PI dye-based fluorescence assay; conditions: TDE = time-dependent effect
# Staphylococcus aureus [28] = test: Antibacterial activity against methicillin-resistant Staphylococcus aureus assessed as inhibition of bacterial growth at 2 time MIC measured after 2 hrs; format: functional, organism-based
# [29] = target: T1, MecA (Staphylococcus aureus); test: Binding affinity to Staphylococcus aureus PBP2a measured after 6 hrs by ELISA in the presence of Ceftizoxime; conditions: filed as positive allosteric modulator
compound,measurement,setting,value
CCn1cc(C(=O)O)c(=O)c2cc(F)c(N3CCNCC3)cc21 [NORFLOXACIN],MIC,Pseudomonas aeruginosa [1],2 µg/mL
same,MIC,Acinetobacter baumannii,1 µg/mL
same,MIC,Enterococcus faecium,8 µg/mL
same,MIC,Klebsiella pneumoniae,4 µg/mL
same,MIC,Pseudomonas aeruginosa [2],4 µg/mL
same,Activity,Staphylococcus aureus [3],inactive
same,MIC,Staphylococcus aureus [4],16 µg/mL
same,MIC,Escherichia coli [5],2 µg/mL
same,MIC,Staphylococcus aureus [6],16 µg/mL
same,Activity,Staphylococcus,7.67 µg/mL
same,MIC,Staphylococcus aureus [7],8 µg/mL
same,MIC,Staphylococcus aureus [8],16 µg/mL
same,MIC,Escherichia coli [9],4 µg/mL
CO/N=C(\C(=O)N[C@@H]1C(=O)N2C(C(=O)O)=CCS[C@H]12)c1csc(N)n1,Activity,Staphylococcus,7.45 µg/mL
CN(C)CCN1C(=O)c2cccc3c(Br)ccc(c23)C1=O,Activity,Staphylococcus,7.08 µg/mL
CN(C)CCN1C(=O)c2cccc3c(N4CCNCC4)ccc(c23)C1=O,Activity,Staphylococcus,4.74 µg/mL
CO/N=C(\C(=O)N1CCN(c2ccc3c4c(cccc24)C(=O)N(OC)C3=O)CC1)c1csc(N)n1,MIC,Pseudomonas aeruginosa [1],32 µg/mL
same,MIC,Acinetobacter baumannii,4 µg/mL
same,MIC,Enterococcus faecium,2 µg/mL
same,MIC,Klebsiella pneumoniae,128 µg/mL
same,MIC,Pseudomonas aeruginosa [2],128 µg/mL
same,MIC,Staphylococcus aureus [4],64 µg/mL
same,MIC,Escherichia coli [5],64 µg/mL
same,MIC,Staphylococcus aureus [6],128 µg/mL
same,Activity,Staphylococcus,5.43 µg/mL
same,MIC,Staphylococcus aureus [7],128 µg/mL
same,MIC,Staphylococcus aureus [8],64 µg/mL
same,HC50 at 1 h,[10],513 µg/mL
same,MIC,Escherichia coli [9],64 µg/mL
CO/N=C(\C(=O)N1CCN(c2ccc3c4c(cccc24)C(=O)N(C2CCCCC2)C3=O)CC1)c1csc(N)n1,MIC,Pseudomonas aeruginosa [1],64 µg/mL
same,MIC,Acinetobacter baumannii,8 µg/mL
same,MIC,Enterococcus faecium,16 µg/mL
same,MIC,Klebsiella pneumoniae,16 µg/mL
same,MIC,Pseudomonas aeruginosa [2],128 µg/mL
same,MIC,Staphylococcus aureus [4],64 µg/mL
same,MIC,Escherichia coli [5],64 µg/mL
same,MIC,Staphylococcus aureus [6],16 µg/mL
same,MIC,Staphylococcus aureus [7],64 µg/mL
same,MIC,Staphylococcus aureus [8],128 µg/mL
same,HC50 at 1 h,[10],257 µg/mL
same,MIC,Escherichia coli [9],64 µg/mL
CO/N=C(\C(=O)N1CCN(c2ccc3c4c(cccc24)C(=O)N(CCN(C)C)C3=O)CC1)c1csc(N)n1,MIC,Pseudomonas aeruginosa [1],8 µg/mL
same,Activity,Staphylococcus aureus [11],45%
same,MIC,Acinetobacter baumannii,16 µg/mL
same,Activity,[12],4.96 ng/mL
same,MIC,Enterococcus faecium,4 µg/mL
same,Activity,L929,Non-Toxic
same,Activity,Cell membrane [13],Tde
same,MIC,Klebsiella pneumoniae,4 µg/mL
same,Activity,Staphylococcus aureus [14],Dose-Dependent Effect
same,Activity,Staphylococcus aureus [15],Active
same,Activity,Staphylococcus aureus [16],Active
same,Activity,Cell membrane [17],Tde
same,Activity,Staphylococcus aureus [18],Active
same,MIC,Pseudomonas aeruginosa [2],16 µg/mL
same,Activity,DNA [19],Active
same,Activity,Staphylococcus aureus [20],Dose-Dependent Effect
same,Activity,Staphylococcus aureus [21],Active
same,MIC,Staphylococcus aureus [4],4 µg/mL
same,Activity,Staphylococcus aureus [22],Active
same,MIC,Escherichia coli [5],2 µg/mL
same,MIC,Staphylococcus aureus [6],0.5 µg/mL
same,Activity,Staphylococcus,4.58 µg/mL
same,Activity,Staphylococcus aureus [23],Active
same,Activity,DNA [24],Active
same,Activity,DNA [25],Active
same,Activity,Homo sapiens,Active
same,Activity,Cell membrane [26],Dose-Dependent Effect
same,MIC,Staphylococcus aureus [7],16 µg/mL
same,MIC,Staphylococcus aureus [8],8 µg/mL
same,HC50 at 1 h,[10],205 µg/mL
same,MIC,Escherichia coli [9],16 µg/mL
same,Activity,Cell membrane [27],Tde
same,Activity,Staphylococcus aureus [28],Active
same,Activity,[29],1.29 ng/mL
CO/N=C(\C(=O)N1CCN(c2ccc3c4c(cccc24)C(=O)N(c2nc4ccccc4s2)C3=O)CC1)c1csc(N)n1,MIC,Pseudomonas aeruginosa [1],32 µg/mL
same,MIC,Acinetobacter baumannii,128 µg/mL
same,MIC,Enterococcus faecium,64 µg/mL
same,MIC,Klebsiella pneumoniae,16 µg/mL
same,MIC,Pseudomonas aeruginosa [2],64 µg/mL
same,MIC,Staphylococcus aureus [4],128 µg/mL
same,MIC,Escherichia coli [5],64 µg/mL
same,MIC,Staphylococcus aureus [6],16 µg/mL
same,MIC,Staphylococcus aureus [7],128 µg/mL
same,MIC,Staphylococcus aureus [8],128 µg/mL
same,HC50 at 1 h,[10],334 µg/mL
same,MIC,Escherichia coli [9],16 µg/mL
